Measurements published in US20250262170A1, “COMBINATIONS OF BETA 2-ADRENERGIC RECEPTOR AGONISTS AND BETA 3-ADRENERGIC RECEPTOR AGONISTS, AND MEDICAL USES THEREOF” (ATROGI AB, priority 2022, published 2025).

Biological target: T1, human β3-adrenergic receptor (Homo sapiens, UniProt P13945)
T1 construct: expressed in transfected cells
Assay: cAMP levels in CHO-K1 cells expressing the human β3-adrenergic receptor
Format: cell-based
Settings: 15 min; for Emax at 10 µM: CHO-K1, 0.25 h, read-out: Activity (intracellular cAMP compared to that of isoproterenol); for Activity (intracellular cAMP compared to that of isoproterenol): 10 μM
Description: CHO-K1 cells stably expressing the human β3-adrenergic receptors were serum-starved overnight and stimulated with an agonist, final concentration 1×10^−5 M, for 15 min in stimulation buffer (HBSS supplemented with 1% BSA, 5 mM HEPES and 1 mM IBMX, pH 7.4) The medium was then aspirated and to end the reaction, 100 μL of 95% EtOH was added to each well of the 24-well plate and cells were kept at −20° C. overnight. The next day EtOH was allowed to evaporate and 250 μL of lysis buffer (1% BSA, 5 mM HEPES and 0.3% Tween-20, pH 7.4) was added to each well. The plate was kept at −80° C. for 30 min and thawed in room temperature. Intracellular cAMP levels were detected using an alpha screen cAMP kit (6760635D from Perkin Elmer). The activity for each compound is compared to that of isoproterenol.

T1 sequence (P13945 whole entry): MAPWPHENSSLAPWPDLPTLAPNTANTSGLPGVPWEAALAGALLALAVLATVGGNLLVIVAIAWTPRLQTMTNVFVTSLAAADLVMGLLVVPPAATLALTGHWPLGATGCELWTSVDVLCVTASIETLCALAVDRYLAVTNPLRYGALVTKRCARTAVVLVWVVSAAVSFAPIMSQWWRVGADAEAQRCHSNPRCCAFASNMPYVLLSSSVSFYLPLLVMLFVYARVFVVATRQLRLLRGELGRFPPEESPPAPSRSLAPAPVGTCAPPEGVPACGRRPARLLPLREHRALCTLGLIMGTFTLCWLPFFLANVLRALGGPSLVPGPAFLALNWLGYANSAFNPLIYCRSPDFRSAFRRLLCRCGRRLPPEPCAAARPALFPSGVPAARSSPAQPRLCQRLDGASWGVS

| SMILES | Emax at 10 µM | Activity (intracellular cAMP compared to that of isoproterenol) |
| --- | --- | --- |
| CCS(=O)(=O)N[C@H]1CC[C@H](CC(C)(C)NC[C@H](O)c2cccc(F)c2)CC1 [Compound 17, N-((trans)-4-(2-(((R)-2-(3-fluorophenyl)-2-ethyl)amino)-2-methylpropyl)cyclohexyl)-ethanesulfonamide] | > 75% | – |
| CCS(=O)(=O)N[C@H]1CC[C@@H](CC(C)(C)NC[C@H](O)c2cncc(F)c2)CC1 [Compound 18, N-((cis)-4-(2-(((R)-2-(5-fluoropyridin-3-yl)-2-hydroxyethyl)amino)-2-methylpropyl)cyclo-hexyl)ethanesulfonamide] | – | + + |
| CCCCS(=O)(=O)N[C@H]1CC[C@H](CC(C)(C)NC[C@H](O)c2cncc(F)c2)CC1 [Compound 19, N-((trans)-4-(2-(((R)-2-(5-fluoropyridin-3-yl)-2-hydroxyethyl)amino)-2-methylpropyl)cyclohexyl)-butane-1-sulfonamide] | > 75% | – |
| CC(C)CS(=O)(=O)N[C@H]1CC[C@H](CC(C)(C)NC[C@H](O)c2cncc(F)c2)CC1 [Compound 20, N-((trans)-4-(2-(((R)-2-(5-fluoropyridin-3-yl)-2-hydroxyethyl)amino)-2-methylpropyl)cyclohexyl)-2-methylpropane-1-sulfonamide] | > 75% | – |
| CCS(=O)(=O)N[C@H]1CC[C@H](CC(C)(C)NC[C@H](O)c2cncc(F)c2)CC1 [Compound 21, N-((trans)-4-(2-(((R)-2-(5-fluoropyridin-3-yl)-2-hydroxyethyl)amino)-2-methylpropyl)cyclohexyl)-ethanesulfonamide] | > 75% | – |
| CC(C)(C[C@H]1CC[C@H](S(N)(=O)=O)CC1)NC[C@H](O)c1cccc(F)c1 [Compound 22, (trans)-4-(2-(((R)-2-(3-fluorophenyl)-2-hydroxy-ethyl)amino)-2-methyl-propyl)cyclohexane-1-sulfonamide] | > 75% | – |
| CC(C)(C[C@H]1CC[C@H](NS(C)(=O)=O)CC1)NC[C@H](O)c1ccc(F)c(N)c1F [Compound 23, N-((trans)-4-(2-(((R)-2-(3-amino-2,4-difluorophenyl)-2-hydroxyethyl)amino)-2-methylpropyl)cyclohexyl)-methanesulfonamide] | > 75% | – |
| CS(=O)(=O)N[C@H]1CC[C@H](C[C@@H]2CC[C@H]([C@H](O)c3cccc(F)c3)N2)CC1 [Compound 24, N-((trans)-4-(((2S,5R)-5-((R)-(3-fluorophenyl)-(hydroxy)methyl)pyrrolidin-2-yl)methyl)cyclohexyl)-methanesulfonamide] | > 75% | – |
| CC(C)(C[C@H]1CC[C@H](NS(=O)(=O)C2CC2)CC1)NC[C@H](O)c1cccc(F)c1 [Compound 25, N-((trans)-4-(2-(((R)-2-(3-fluorophenyl)-2-hydroxy-ethyl)amino)-2-methyl-propyl)cyclohexyl)cyclo-propanesulfonamide] | > 75% | – |
| CNS(=O)(=O)[C@H]1CC[C@H](CC(C)(C)NC[C@H](O)c2cccc(F)c2)CC1 [Compound 27, (trans)-4-(2-(((R)-2-(3-fluorophenyl)-2-hydroxy-ethyl)amino)-2-methy-propyl)-N-methyl-cyclohexane-1-sulfonamide] | > 75% | – |
| COCC12CC(C1)[C@H]([C@H](O)c1cccc(F)c1)N2 [Compound 29, (R)-(3-fluorophenyl)((R)-1-(methoxymethyl)-2-aza-bicyclo[2.1.1]hexan-3-yl)-methanol] | 50 to 75% | – |
| CC(C)(C[C@H]1CC[C@H](NS(=O)(=O)C(F)(F)F)CC1)NC[C@H](O)c1cccc(F)c1 [Compound 30, 1,1,1-trifluoro-N-((trans)-4-(2-(((R)-2-(3-fluorophenyl)-2-hydroxyethyl)amino)-2-methylpropyl)cyclohexyl)-methanesulfonamide] | > 75% | – |
| CCCS(=O)(=O)N[C@H]1CC[C@H](CC(C)(C)NC[C@H](O)c2cccc(F)c2)CC1 [Compound 31, N-((trans)-4-(2-(((R)-2-(3-fluorophenyl)-2-hydroxy-ethyl)amino)-2-methyl-propyl)cyclohexyl)propane-1-sulfonamide] | > 75% | – |
| O[C@H](c1cncc(F)c1)C12CCC(COc3ccc(OC(F)(F)F)cc3)(CC1)N2 [Compound 32, (R)-(5-fluoropyridin-3-yl)((1r,4R)-4-((4-(trifluoro-methoxy)phenoxy)methyl)-7-azabicyclo[2.2.1]heptan-1-yl)methanol] | > 75% | – |
| CC(C)(C[C@H]1CC[C@H](NC(=O)C(F)(F)F)CC1)NC[C@H](O)c1cccc(F)c1 [Compound 33, 2,2,2-trifluoro-N-((1R,4r)-4-(2-(((R)-2-(3-fluorophenyl)-2-hydroxyethyl)amino)-2-methylpropyl)cyclohexyl)-acetamide] | > 75% | – |
| CC(C)(C[C@H]1CC[C@H](NS(C)(=O)=O)CC1)NC[C@H](O)c1cccc(C#N)n1 [Compound 35, N-((trans)-4-(2-(((S)-2-(6-cyanopyridin-2-yl)-2-hydroxyethyl)amino)-2-methylpropyl)cyclohexyl)-methanesulfonamide] | > 75% | – |

| SMILES | Emax at 10 µM | Activity (intracellular cAMP compared to that of isoproterenol) |
| --- | --- | --- |
| CO[C@H]1CC[C@@H](CC(C)(C)NC[C@H](O)c2ccc(F)c(N)c2F)CC1 [Compound 36, (R)-1-(3-amino-2,4-difluoro-phenyl)-2-((1-((cis)-4-methoxycyclohexyl)-2-methylpropan-2-yl)amino)-ethan-1-ol] | > 75% | – |
| CO[C@H]1CC[C@H](CC(C)(C)NC[C@H](O)c2ccc(F)c(N)c2F)CC1 [Compound 37, (R)-1-(3-amino-2,4-difluoro-phenyl)-2-((1-((trans)-4-methoxycyclohexyl)-2-methylpropan-2-yl)amino)-ethan-1-ol] | > 75% | – |
| CCOCC12CCC([C@H](O)c3cncc(F)c3)(CC1)N2 [Compound 38, (R)-(4-(ethoxymethyl)-7-azabicyclo[2.2.1]heptan-1-yl)(5-fluoropyridin-3-yl) methanol] | 50 to 75% | – |
| CO[C@H]1CC[C@H](CC[C@@H]2CC[C@H]([C@H](O)c3cccc(F)c3)N2)CC1 [Compound 39, (R)-(3-fluorophenyl)((2R,5R)-5-(2-((tranbs)-4-methoxy-cyclohexyl)ethyl)pyrrolidin-2-yl)methanol] | > 75% | – |
| CC(C)(C[C@H]1CC[C@H](C#N)CC1)NC[C@H](O)c1cccc(F)c1 [Compound 40, (trans)-4-(2-(((R)-2-(3-fluorophenyl)-2-hydroxy-ethyl)amino)-2-methyl-propyl)cyclohexane-1-carbonitrile] | 50 to 75% | – |
| CCOC(=O)CO[C@H]1CC[C@H](C(C)(C)NC[C@H](O)c2cccc(F)c2)CC1 [Compound 41, ethyl 2-(((1R,4r)-4-(2-(((R)-2-(3-fluorophenyl)-2-hydroxyethyl)amino)propan-2-yl)cyclohexyl)oxy)acetate] | > 75% | – |
| O[C@H](c1cccc(F)c1)[C@H]1CC[C@@H](Cc2ccc(Cl)cc2)N1 [Compound 42, (R)-((2R,5S)-5-(4-chloro-benzyl)pyrrolidin-2-yl)(3-fluorophenyl)methanol] | > 75% | – |
| O[C@H](c1cccc(F)c1)C12CCC(Cc3ccccc3)(CC1)N2 [Compound 43, (R)-(4-benzyl-7-azabicyclo-[2.2.1]heptan-1-yl)(3-fluoro-phenyl)methanol] | 50 to 75% | – |
| CC(C)(NC[C@H](O)c1cccc(F)c1)[C@H]1CC[C@H](NC(=O)c2ccccc2)CC1 [Compound 44, N-((trans)-4-(2-(((R)-2-(3-fluorophenyl)-2-hydroxy-ethyl)amino)propan-2-yl)-cyclohexyl)benzamide] | > 75% | – |
| CC(C)(C[C@H]1CC[C@H](NS(C)(=O)=O)CC1)NC[C@H](O)c1cccc(F)c1 [Compound 45, N-((trans)-4-(2-(((R)-2-(3-fluorophenyl)-2-hydroxy-ethyl)amino)-2-methyl-propyl)cyclohexyl)methane-sulfonamide] | – | ++ (activity of more than 75% of that of isoproterenol at 10 μM) |
| CC(C)(C[C@H]1CC[C@H](NS(C)(=O)=O)CC1)NC[C@H](O)c1cncc(F)c1 [Compound 46, N-((trans)-4-(2-(((R)-2-(5-fluoropyridin-3-yl)-2-hydroxyethyl)amino)-2-methylpropyl)cyclohexyl) methanesulfonamide] | > 75% | – |
| COC(=O)[C@H]1CC[C@H](CCC(C)(C)NC[C@H](O)c2cncc(F)c2)CC1 [Compound 47, methyl (trans)-4-(3-(((R)-2-(5-fluoropyridin-3-yl)-2-hydroxyethyl)amino)-3-methylbutyl)cyclohexane-1-carboxylate] | 50 to 75% | – |
| CO[C@H]1CC[C@H](C[C@H]2CC[C@H]([C@H](O)c3ccccc3F)N2)CC1 [Compound 48, (R)-(2-fluorophenyl)((2R,5R)-5-(((trans)-4-methoxycyclo-hexyl)methyl)pyrrolidin-2-yl)-methanol] | 50 to 75% | – |
| CO[C@H]1CC[C@H](C[C@@H]2CC[C@H]([C@H](O)c3ccccc3F)N2)CC1 [Compound 49, (R)-(2-fluorophenyl)((2R,5S)-5-(((trans)-4-methoxycyclo-hexyl)methyl)pyrrolidin-2-yl)-methanol] | 50 to 75% | – |
| CC(C)(CC[C@H]1CC[C@@H](O)CC1)NC[C@H](O)c1ccccc1F [Compound 50, (cis)-4-(3-(((R)-2-(2-fluoro-phenyl)-2-hydroxyethyl)-amino)-3-methylbutyl)-cyclohexan-1-ol] | 50 to 75% | – |
| CC(C)(CC[C@H]1CC[C@H](O)CC1)NC[C@H](O)c1ccccc1F [Compound 51, (trans)-4-(3-(((R)-2-(2-fluorophenyl)-2-hydroxy-ethyl)amino)-3-methylbutyl)-cyclohexan-1-ol] | > 75% | – |
